In assay [1] the target is T1, human EGFR (L858R/T790M/C797S) (Homo sapiens, UniProt P00533, C797S/L858R/T790M).
T1 construct: made in house; host or cells: Sf9 insect cells, baculovirus
The assay can be described thus: Inhibitory activity against EGFR (L858R/T790M/C797S) kinase. The class given is biochemical. The essentials:
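GST-tagged cytoplasmic domain of human EGFR L858R/T790M/C797S, expressed in Sf9 insect cells via baculovirus and glutathione-purified. Kinase reaction run at 0.5 μM ATP final; IC50 (nM) determined per compound.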

Assay [2] addresses T2, human EGFR (d746-750/C797S) (Homo sapiens, UniProt P00533, C797S/DEL746-750).
T2 construct: purchased SignalChem
The assay can be described thus: Inhibitory activity against EGFR (d746-750/C797S) kinase. Format: biochemical. The essentials: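 Recombinant human EGFR d746-750/C797S in 13.5 mM Tris pH 7.5 with 2 mM DTT and 0.009% Tween-20. Reaction ran 60 min with 14 μM ATP, 20 mM MgCl2 and 12.5 mM MnCl2, stopped by 40 mM EDTA. IC50 in nM.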

Where [3] appears, read: Test Example 1, Table 3, ATP 0.5 μM.
Setting [4] is: Test Example 1, Table 4, ATP 14 μM, 60 minutes.

Broadly, the IC50 is the point on the concentration scale where inhibition reaches its midpoint. Low readings indicate greater potency, high ones weaker potency.

Some results are limits rather than exact numbers.

T2 sequence (P00533 with tags, fused parts or gaps DEL746-750/C797S): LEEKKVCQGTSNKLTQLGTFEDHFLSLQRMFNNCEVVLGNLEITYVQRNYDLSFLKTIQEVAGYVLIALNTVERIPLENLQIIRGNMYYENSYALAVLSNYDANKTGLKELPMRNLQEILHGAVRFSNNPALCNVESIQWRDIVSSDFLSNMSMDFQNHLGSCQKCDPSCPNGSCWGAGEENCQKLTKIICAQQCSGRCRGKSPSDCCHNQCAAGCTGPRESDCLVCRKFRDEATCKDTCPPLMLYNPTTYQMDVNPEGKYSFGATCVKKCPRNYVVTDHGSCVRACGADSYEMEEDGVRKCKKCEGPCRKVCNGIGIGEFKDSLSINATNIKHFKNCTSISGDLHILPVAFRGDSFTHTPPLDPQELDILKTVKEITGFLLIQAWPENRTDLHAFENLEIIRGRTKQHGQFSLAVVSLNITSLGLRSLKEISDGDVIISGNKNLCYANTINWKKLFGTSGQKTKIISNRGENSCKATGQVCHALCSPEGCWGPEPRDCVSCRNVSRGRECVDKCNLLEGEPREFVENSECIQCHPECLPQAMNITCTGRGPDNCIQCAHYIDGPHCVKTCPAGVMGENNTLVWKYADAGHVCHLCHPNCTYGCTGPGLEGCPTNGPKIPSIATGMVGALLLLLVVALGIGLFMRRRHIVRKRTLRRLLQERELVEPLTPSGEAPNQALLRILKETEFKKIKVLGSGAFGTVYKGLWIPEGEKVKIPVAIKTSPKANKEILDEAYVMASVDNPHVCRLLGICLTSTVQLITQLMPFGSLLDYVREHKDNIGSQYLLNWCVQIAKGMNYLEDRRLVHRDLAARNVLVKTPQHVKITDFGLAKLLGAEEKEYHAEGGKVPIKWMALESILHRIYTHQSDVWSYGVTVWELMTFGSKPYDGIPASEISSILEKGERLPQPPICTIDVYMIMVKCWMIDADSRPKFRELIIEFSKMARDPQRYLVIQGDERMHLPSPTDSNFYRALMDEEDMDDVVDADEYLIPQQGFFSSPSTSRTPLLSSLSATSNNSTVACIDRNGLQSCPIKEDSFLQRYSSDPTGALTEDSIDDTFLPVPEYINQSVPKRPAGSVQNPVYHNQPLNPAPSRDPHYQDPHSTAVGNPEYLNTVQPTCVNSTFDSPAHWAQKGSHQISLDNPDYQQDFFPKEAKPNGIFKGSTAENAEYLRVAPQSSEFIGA
T1 sequence (P00533 with tags, fused parts or gaps T790M/C797S/L858R): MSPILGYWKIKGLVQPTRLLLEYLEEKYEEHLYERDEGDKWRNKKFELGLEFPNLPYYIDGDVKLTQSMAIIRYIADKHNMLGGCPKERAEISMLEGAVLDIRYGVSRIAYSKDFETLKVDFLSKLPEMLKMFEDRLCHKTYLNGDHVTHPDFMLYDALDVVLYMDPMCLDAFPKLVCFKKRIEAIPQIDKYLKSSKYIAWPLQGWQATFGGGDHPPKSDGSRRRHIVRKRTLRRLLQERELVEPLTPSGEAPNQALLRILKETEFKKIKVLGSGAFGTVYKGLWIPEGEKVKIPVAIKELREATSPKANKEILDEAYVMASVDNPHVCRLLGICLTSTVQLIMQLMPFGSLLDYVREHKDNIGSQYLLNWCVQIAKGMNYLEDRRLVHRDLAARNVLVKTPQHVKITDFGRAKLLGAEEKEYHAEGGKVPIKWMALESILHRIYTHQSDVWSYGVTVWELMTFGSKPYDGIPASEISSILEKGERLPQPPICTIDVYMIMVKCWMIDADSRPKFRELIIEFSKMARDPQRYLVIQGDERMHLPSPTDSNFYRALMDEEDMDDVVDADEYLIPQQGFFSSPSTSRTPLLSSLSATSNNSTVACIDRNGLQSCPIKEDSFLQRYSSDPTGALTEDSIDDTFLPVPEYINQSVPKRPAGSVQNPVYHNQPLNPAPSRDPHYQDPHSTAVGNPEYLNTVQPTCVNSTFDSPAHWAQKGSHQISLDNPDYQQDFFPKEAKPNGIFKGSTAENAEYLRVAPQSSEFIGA

With `C=CC(=O)N1CC[C@@H](n2cc(-c3cnc4ccccc4c3)c3c(N)ncnc32)C1` [Comparative Example A, (R)-1-(3(4-Amino-5-(quinolin-3-yl)-7H-pyrrolo[2,3-d]pyrimidin-7-yl)pyrrolidin-1-yl) -prop-2-en-1-one, reference compound], the values for the 50% inhibitory concentration (IC50) in assay [1] (setting [3]) and in assay [2] (setting [4]) were 102 nM and 264 nM, respectively. For `C#Cc1c(-c2cnc3ccccc3c2)c2c(N)ncnc2n1[C@@H]1CCN(C(=O)C=C)C1` [Comparative Example B, (R)-1-(3-(4-Amino-6-ethynyl-5-(quinolin-3-yl)-7H-pyrrolo[2,3-d]pyrimidin-7-yl) -pyrrolidin-1-yl)-prop-2-en-1-one, reference compound], the figures for the IC50 in assay [1] (setting [3]) and in assay [2] (setting [4]) were 43 nM and 93 nM, respectively.

For `C#Cc1c(-c2cnc3ccccc3c2)c2c(N)ncnc2n1C12CCC(NC(=O)c3ccccc3)(CC1)C2` [Example 1, N-(4-(4-Amino-6-ethynyl-5-(quinolin-3-yl)-7H-pyrrolo[2,3-d]pyrimidin-7-yl)bicyclo-[2.2.1]heptan-1-yl)benzamide], the IC50 in assay [1] (setting [3]) was 0.46 nM; in assay [2] (setting [4]), 1.8 nM. Turning to `C#Cc1c(-c2cnc3ccccc3c2)c2c(N)ncnc2n1C12CCC(NC(=O)c3cncnc3)(CC1)C2` [Example 2, N-(4-(4-Amino-6-ethynyl-5-(quinolin-3-yl)-7H-pyrrolo[2,3-d]pyrimidin-7-yl)bicyclo-[2.2.1]heptan-1-yl)pyrimidine-5-carboxamide], the half-inhibitory concentration (IC50) in assay [1] (setting [3]) is < 0.3 nM. With `C#Cc1c(-c2cnc3ccccc3c2)c2c(N)ncnc2n1C12CCC(NC(=O)c3ccnnc3)(CC1)C2` [Example 3, N-(4-(4-Amino-6-ethynyl-5-(quinolin-3-yl)-7H-pyrrolo[2,3-d]pyrimidin-7-yl)bicyclo-[2.2.1]heptan-1-yl)pyridazine-4-carboxamide], the IC50 in assay [1] (setting [3]) and in assay [2] (setting [4]) was < 0.3 nM each time. Compound `C#Cc1c(-c2cnc3ccccc3c2)c2c(N)ncnc2n1C12CCC(N3CCOCC3)(CC1)C2` [Example 9, 6-Ethynyl-7-(4-morpholinobicyclo[2.2.1]heptan-1-yl)-5-(quinolin-3-yl)-7H-pyrrolo[2,3-d]pyrimidine-4-amine] registered an IC50 in assay [2] (setting [4]) of 0.36 nM. This counts as sub-nanomolar. The same measure, in the same setting: the value for `C#Cc1c(-c2cnc3ccccc3c2)c2c(N)ncnc2n1C12CCC(CNC(=O)c3ccnn3C)(CC1)C2` [Example 13, N-((4-(4-Amino-6-ethynyl-5-(quinolin-3-yl)-7H-pyrrolo[2,3-d]pyrimidin-7-yl)bicyclo-[2.2.1]heptan-1-yl)methyl)-1-methyl-1H-pyrazole-5-carboxamide] was 0.67 nM; that for `C#Cc1c(-c2cnc3ccccc3c2)c2c(N)ncnc2n1C12CCC(CNC(=O)c3cnc(C)cn3)(CC1)C2` [Example 14, N-((4-(4-Amino-6-ethynyl-5-(quinolin-3-yl)-7H-pyrrolo[2,3-d]pyrimidin-7-yl)bicyclo-[2.2.1]heptan-1-yl)methyl)-5-methylpyrazine-2-carboxamide] was 0.79 nM.

As to `C#Cc1c(-c2cnc3ccccc3c2)c2c(N)ncnc2n1C12CCC(NC(=O)c3ccc4ncnn4c3)(CC1)C2` [Example 16, N-(4-(4-Amino-6-ethynyl-5-(quinolin-3-yl)-7H-pyrrolo[2,3-d]pyrimidin-7-yl)bicyclo-[2.2.1]heptan-1-yl)-[1.2.4]triazolo[1,5-a]pyrimidin-6-carboxamide], the values for the IC50 in assay [1] (setting [3]) and in assay [2] (setting [4]) were 0.36 nM and 0.45 nM, respectively. `C#Cc1c(-c2cnc3ccccc3c2)c2c(N)ncnc2n1C12CCC(NC(=O)c3cnns3)(CC1)C2` [Example 18, N-(4-(4-Amino-6-ethynyl-5-(quinolin-3-yl)-7H-pyrrolo[2,3-d]pyrimidin-7-yl)bicyclo-[2.2.1]heptan-1-yl)-1,2,3-thiadiazole-5-carboxamide]: the IC50 came out at 0.42 nM in assay [1] (setting [3]) and 0.78 nM in assay [2] (setting [4]). In the case of `C#Cc1c(-c2cnc3ccccc3c2)c2c(N)ncnc2n1C12CCC(NC(=O)c3ccnn3C3CC3)(CC1)C2` [Example 20, N-(4-(4-Amino-6-ethynyl-5-(quinolin-3-yl)-7H-pyrrolo[2,3-d]pyrimidin-7-yl)bicyclo-[2.2.1]heptan-1-yl)-1-cyclopropyl-1H-pyrazole-5-carboxamide], the IC50 in assay [1] (setting [3]) is 0.44 nM; in assay [2] (setting [4]), 0.68 nM.

Regarding `C#Cc1c(-c2cnc3ccccc3c2)c2c(N)ncnc2n1C12CCC(NC(=O)c3nccn3C)(CC1)C2` [Example 23, N-(4-(4-Amino-6-ethynyl-5-(quinolin-3-yl)-7H-pyrrolo[2,3-d]pyrimidin-7-yl)bicyclo-[2.2.1]heptan-1-yl)-1-methyl-1H-imidazole-2-carboxamide], the IC50 came out at 0.42 nM in assay [1] (setting [3]) and 0.7 nM in assay [2] (setting [4]). As to `C#Cc1c(-c2cnc3ccccc3c2)c2c(N)ncnc2n1C12CCC(NC(=O)c3ccnn3C)(CC1)C2` [Example 24, N-(4-(4-Amino-6-ethynyl-5-(quinolin-3-yl)-7H-pyrrolo[2,3-d]pyrimidin-7-yl)bicyclo-[2.2.1]heptan-1-yl)-1-methyl-1H-pyrazole-5-carboxamide], the IC50 was < 0.3 nM in assay [1] (setting [3]) and 0.5 nM in assay [2] (setting [4]). In the case of `C#Cc1c(-c2cnc3ccccc3c2)c2c(N)ncnc2n1C12CCC(NC(=O)C(F)F)(CC1)C2` [Example 27, N-(4-(4-Amino-6-ethynyl-5-(quinolin-3-yl)-7H-pyrrolo[2,3-d]pyrimidin-7-yl)bicyclo-[2.2.1]heptan-1-yl)-2,2-difluoroacetamide], the IC50 in assay [1] (setting [3]) turned out to be 0.47 nM; in assay [2] (setting [4]) it was 1.2 nM.

As for `C#Cc1c(-c2cnc3ccccc3c2)c2c(N)ncnc2n1C12CCC(NC(=O)c3cncc(F)c3)(CC1)C2` [Example 35, N-(4-(4-Amino-6-ethynyl-5-(quinolin-3-yl)-7H-pyrrolo[2,3-d]pyrimidin-7-yl)-bicyclo-[2.2.1]heptan-1-yl)-5-fluoronicotinamide], the IC50 in assay [1] (setting [3]) came out at 0.5 nM; in assay [2] (setting [4]), 0.55 nM. For `C#Cc1c(-c2cnc3ccccc3c2)c2c(N)ncnc2n1C12CCC(NC(=O)c3noc(C)n3)(CC1)C2` [Example 36, N-(4-(4-Amino-6-ethynyl-5-(quinolin-3-yl)-7H-pyrrolo[2,3-d]pyrimidin-7-yl)-bicyclo-[2.2.1]heptan-1-yl)-5-methyl-1,2,4-oxadiazole-3-carboxamide], the IC50 in assay [1] (setting [3]) worked out at 0.56 nM; in assay [2] (setting [4]), 0.61 nM. As for `C#Cc1c(-c2cnc3ccccc3c2)c2c(N)ncnc2n1C12CCC(NC(=O)c3cnc(C)cn3)(CC1)C2` [Example 37, N-(4-(4-Amino-6-ethynyl-5-(quinolin-3-yl)-7H-pyrrolo[2,3-d]pyrimidin-7-yl)-bicyclo-[2.2.1]heptan-1-yl)-5-methylpyrazine-2-carboxamide], the IC50 in assay [1] (setting [3]) turned out to be 0.52 nM; in assay [2] (setting [4]), 0.5 nM.

With `C#Cc1c(-c2cnc3ccccc3c2)c2c(N)ncnc2n1C12CCC(NC(C)=O)(CC1)C2` [Example 39, N-(4-(4-Amino-6-ethynyl-5-(quinolin-3-yl)-7H-pyrrolo[2,3-d]pyrimidin-7-yl)-bicyclo-[2.2.1]heptan-1-yl)acetamide], the IC50 in assay [1] (setting [3]) was found to be 0.36 nM; in assay [2] (setting [4]) it was 0.75 nM. `C#Cc1c(-c2cnc3ccccc3c2)c2c(N)ncnc2n1C12CCC(NC(=O)c3ccco3)(CC1)C2` [Example 41]: the IC50 was 0.39 nM in assay [1] (setting [3]) and 1.4 nM in assay [2] (setting [4]). For `C#Cc1c(-c2cnc3ccccc3c2)c2c(N)ncnc2n1C12CCC(NC(=O)c3ccncc3)(CC1)C2` [Example 43], in assay [2] (setting [4]), the midpoint of inhibition, the IC50, lay at 0.73 nM. This counts as sub-nanomolar. On to `C#Cc1c(-c2cnc3ccccc3c2)c2c(N)ncnc2n1C12CCC(NC(=O)c3ccno3)(CC1)C2` [Example 44], for which the figures for the IC50 in assay [1] (setting [3]) and in assay [2] (setting [4]) were 0.32 nM and 0.73 nM, respectively.

Take `C#Cc1c(-c2cnc3ccccc3c2)c2c(N)ncnc2n1C12CCC(NC(=O)c3cccnc3)(CC1)C2` [Example 45]: the IC50 in assay [2] (setting [4]) is 0.67 nM.

Regarding `C#Cc1c(-c2cnc3ccccc3c2)c2c(N)ncnc2n1C12CCC(NC(=O)c3ncco3)(CC1)C2` [Example 46], the figures for the IC50 in assay [1] (setting [3]) and in assay [2] (setting [4]) were 0.41 nM and 0.43 nM, respectively. The matching figures for `C#Cc1c(-c2cnc3ccccc3c2)c2c(N)ncnc2n1C12CCC(NC(=O)c3cnccn3)(CC1)C2` [Example 48]: < 0.3 nM and 0.46 nM. The corresponding values for `C#Cc1c(-c2cnc3ccccc3c2)c2c(N)ncnc2n1C12CCC(NC(=O)c3cccnn3)(CC1)C2` [Example 49] are 0.47 nM and 0.49 nM. As for `C#Cc1c(-c2cnc3ccccc3c2)c2c(N)ncnc2n1C12CCC(NC(=O)c3nccs3)(CC1)C2` [Example 53], the IC50 in assay [1] (setting [3]) came out at 0.69 nM; in assay [2] (setting [4]) it was 0.88 nM. Take `C#Cc1c(-c2cnc3ccccc3c2)c2c(N)ncnc2n1C12CCC(NC(=O)[C@@H]3CN(C)CCO3)(CC1)C2` [Example 63, (S)-N-(4-(4-Amino-6-ethynyl-5-(quinolin-3-yl)-7H-pyrrolo[2,3-d]pyrimidin-7-yl) -bicyclo[2.2.1]heptan-1-yl)-4-methylmorpholine-2-carboxamide]: the IC50 was < 0.3 nM in assay [1] (Test Example 3, Table 9; same procedures as 2) in Test Example 1) and 0.51 nM in assay [2] (Test Example 3, Table 10; same procedures as 3) in Test Example 1).

For the origin of these results see patent US11786534B2 (TAIHO PHARMACEUTICAL CO., LTD., priority 2019, dated 2023).
